# Reference: patent publication US20120165331A1, “Di/tri-aza-spiro-C9-C11alkanes” (priority 2010, published 2012)
# Key:
# human orexin 1 receptor = target: T1, human orexin 1 receptor (Homo sapiens, UniProt O43613); assay: Calcium accumulation in cells (FLIPR), antagonism of orexin A, human orexin 1 receptor; type: cell-based; settings: for inhibition at 10 µM: measured at a concentration of 10 μM of compound, read-out: FLIPR hOx1R % inhibition; for Ki: calcium accumulation, antagonism of orexin A, Cheng-Prusoff corrected, read-out: FLIPR hOx1R Ki
# T1 construct: expressed in transfected cells
# T1 sequence (O43613 1-425): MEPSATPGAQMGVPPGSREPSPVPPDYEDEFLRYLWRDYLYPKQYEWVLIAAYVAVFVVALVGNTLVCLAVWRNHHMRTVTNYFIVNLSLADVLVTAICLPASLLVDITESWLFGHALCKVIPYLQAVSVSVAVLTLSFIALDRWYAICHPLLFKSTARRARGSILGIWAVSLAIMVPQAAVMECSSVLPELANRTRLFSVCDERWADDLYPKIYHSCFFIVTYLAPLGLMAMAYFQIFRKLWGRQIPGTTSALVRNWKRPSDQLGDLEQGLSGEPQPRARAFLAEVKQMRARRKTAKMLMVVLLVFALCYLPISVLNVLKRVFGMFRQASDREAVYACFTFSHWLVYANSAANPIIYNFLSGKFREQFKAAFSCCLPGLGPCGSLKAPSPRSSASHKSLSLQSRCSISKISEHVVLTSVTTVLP
# human orexin 2 receptor = target: T2, human orexin 2 receptor (Homo sapiens, UniProt O43614); assay: Calcium accumulation in cells (FLIPR), antagonism of orexin A, human orexin 2 receptor; type: cell-based; settings: for inhibition at 10 µM: measured at a concentration of 10 μM of compound, read-out: FLIPR hOx2R % inhibition; for Ki: calcium accumulation, antagonism of orexin A, Cheng-Prusoff corrected, read-out: FLIPR hOx2R Ki
# T2 construct: expressed in transfected cells
# T2 sequence (O43614 1-444): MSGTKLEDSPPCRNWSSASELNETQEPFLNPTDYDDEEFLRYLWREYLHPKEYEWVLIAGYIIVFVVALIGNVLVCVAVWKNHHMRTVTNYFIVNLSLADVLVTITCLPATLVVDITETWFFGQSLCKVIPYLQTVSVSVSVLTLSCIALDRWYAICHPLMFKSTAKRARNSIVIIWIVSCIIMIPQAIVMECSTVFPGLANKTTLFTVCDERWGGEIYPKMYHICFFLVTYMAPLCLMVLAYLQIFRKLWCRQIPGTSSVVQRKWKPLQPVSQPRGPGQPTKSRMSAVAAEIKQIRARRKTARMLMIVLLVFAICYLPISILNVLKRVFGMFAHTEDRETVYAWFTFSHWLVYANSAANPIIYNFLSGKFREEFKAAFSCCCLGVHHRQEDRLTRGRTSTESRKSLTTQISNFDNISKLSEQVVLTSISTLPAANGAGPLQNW
Structure (SMILES),inhibition at 10 µM (human orexin 1 receptor) [%],inhibition at 10 µM (human orexin 2 receptor) [%],Ki (human orexin 1 receptor) [nM],Ki (human orexin 2 receptor) [nM]
"O=C1N(Cc2c[nH]c3ccccc23)CCC12CCN(c1ccc(-n3ccnc3)nn1)C2 (stereo not shown) [Example 5.20, 7-(6-(1H-imidazol-1-yl)pyridazin-3-yl)-2-((1H-indol-3-yl)methyl)-2,7-diazaspiro[4.4]nonan-1-one]",34,33,,
"COc1cc(N2CCC3(CCN(Cc4c[nH]c5ccccc45)C3=O)C2)nc(C2CC2)n1 (stereo not shown) [Example 5.21, 2-((1H-indol-3-yl)methyl)-7-(2-cyclopropyl-6-methoxypyrimidin-4-yl)-2,7-diazaspiro[4.4]nonan-1-one]",,,1300,370
"Cn1ccnc1-c1ccnc(N2CCC3(CCN(Cc4c[nH]c5ccccc45)C3=O)C2)n1 (stereo not shown) [Example 5.22, 2-((1H-indol-3-yl)methyl)-7-(4-(1-methyl-1H-imidazol-2-yl)pyrimidin-2-yl)-2,7-diazaspiro[4.4]nonan-1-one]",,,923,489
"Cc1cnc(N2CCC3(CCN(Cc4c[nH]c5ccccc45)C3=O)C2)s1 (stereo not shown) [Example 5.23, 2-((1H-indol-3-yl)methyl)-7-(5-methylthiazol-2-yl)-2,7-diazaspiro[4.4]nonan-1-one]",67,,,645
"O=C1N(Cc2c[nH]c3ccccc23)CCC12CCN(c1cc3c(nn1)CCOC3)C2 (stereo not shown) [Example 5.24, 2-((1H-indol-3-yl)methyl)-7-(7,8-dihydro-5H-pyrano[4,3-c]pyridazin-3-yl)-2,7-diazaspiro[4.4]nonan-1-one]",25,54,,
"Cc1cc(N2CCOCC2)nc(N2CCC3(CCN(Cc4c[nH]c5ccccc45)C3=O)C2)n1 (stereo not shown) [Example 5.25, 2-((1H-indol-3-yl)methyl)-7-(4-methyl-6-morpholinopyrimidin-2-yl)-2,7-diazaspiro[4.4]nonan-1-one]",71,66,,
"Cc1nc(N2CCOCC2)cc(N2CCC3(CCN(Cc4c[nH]c5ccccc45)C3=O)C2)n1 (stereo not shown) [Example 5.26, 2-((1H-indol-3-yl)methyl)-7-(2-methyl-6-morpholinopyrimidin-4-yl)-2,7-diazaspiro[4.4]nonan-1-one]",37,47,,
"Cc1cccc(N2CCC3(CCN(Cc4c[nH]c5ccccc45)C3=O)C2)n1 (stereo not shown) [Example 5.27, 2-((1H-indol-3-yl)methyl)-7-(6-methylpyridin-2-yl)-2,7-diazaspiro[4.4]nonan-1-one]",,,2390,298
"Cc1ccnc(N2CCC3(CCN(Cc4c[nH]c5ccccc45)C3=O)C2)c1 (stereo not shown) [Example 5.28, 2-((1H-indol-3-yl)methyl)-7-(4-methylpyridin-2-yl)-2,7-diazaspiro[4.4]nonan-1-one]",34,,,182
"Cc1cc(C)nc(N2CCC3(CCN(Cc4c[nH]c5ccccc45)C3=O)C2)c1 (stereo not shown) [Example 5.29, 2-((1H-indol-3-yl)methyl)-7-(4,6-dimethylpyridin-2-yl)-2,7-diazaspiro[4.4]nonan-1-one]",,,1490,114
"COc1ccnc(N2CCC3(CCN(Cc4c[nH]c5ccccc45)C3=O)C2)c1 (stereo not shown) [Example 5.30, 2-((1H-indol-3-yl)methyl)-7-(4-methoxypyridin-2-yl)-2,7-diazaspiro[4.4]nonan-1-one]",,,4350,193
"Cc1cc(N2CCC3(CCN(Cc4c[nH]c5ccccc45)C3=O)C2)nc(C)n1 (stereo not shown) [Example 5.31, 2-((1H-indol-3-yl)methyl)-7-(2,6-dimethylpyrimidin-4-yl)-2,7-diazaspiro[4.4]nonan-1-one]",< 10,24,,
"Cn1ccc2ccnc(N3CCC4(CCN(Cc5c[nH]c6ccccc56)C4=O)C3)c21 (stereo not shown) [Example 5.32, 2-((1H-indol-3-yl)methyl)-7-(1-methyl-1H-pyrrolo[2,3-c]pyridin-7-yl)-2,7-diazaspiro[4.4]nonan-1-one]",,,4470,2290
"COc1cc(N2CCC3(CCN(Cc4c[nH]c5ccccc45)C3=O)C2)nc2ccnn12 (stereo not shown) [Example 5.33, 2-((1H-indol-3-yl)methyl)-7-(7-methoxypyrazolo[1,5-a]pyrimidin-5-yl)-2,7-diazaspiro[4.4]nonan-1-one]",< 10,< 10,,
"Cc1noc(-c2ccnc(N3CCC4(CCN(Cc5c[nH]c6ccccc56)C4=O)C3)c2)n1 (stereo not shown) [Example 5.34, 2-((1H-indol-3-yl)methyl)-7-(4-(3-methyl-1,2,4-oxadiazol-5-yl)pyridin-2-yl)-2,7-diazaspiro[4.4]nonan-1-one]",,,2150,1470
"O=C1N(Cc2c[nH]c3ccccc23)CCC12CCN(c1cc(N3CCCC3)ncn1)C2 (stereo not shown) [Example 5.35, 2-((1H-indol-3-yl)methyl)-7-(6-(pyrrolidin-1-yl)pyrimidin-4-yl)-2,7-diazaspiro[4.4]nonan-1-one]",,,1770,2720
"COc1nc(C)cc(N2CCC3(CCN(Cc4c[nH]c5ccccc45)C3=O)C2)n1 (stereo not shown) [Example 5.36, 2-((1H-indol-3-yl)methyl)-7-(2-methoxy-6-methylpyrimidin-4-yl)-2,7-diazaspiro[4.4]nonan-1-one]",18,,,927
"Cc1csc(N2CCC3(CCN(Cc4c[nH]c5ccccc45)C3=O)C2)n1 (stereo not shown) [Example 5.37, 2-((1H-indol-3-yl)methyl)-7-(4-methylthiazol-2-yl)-2,7-diazaspiro[4.4]nonan-1-one]",,,3590,1410
"COc1cc(N2CCC3(CCN(Cc4c[nH]c5ccccc45)C3=O)C2)n2nccc2n1 (stereo not shown) [Example 5.38, 2-((1H-indol-3-yl)methyl)-7-(5-methoxypyrazolo[1,5-a]pyrimidin-7-yl)-2,7-diazaspiro[4.4]nonan-1-one]",,,2410,1020
"CC(C)c1ccnc(N2CCC3(CCN(Cc4c[nH]c5ccccc45)C3=O)C2)n1 (stereo not shown) [Example 5.39, 2-((1H-indol-3-yl)methyl)-7-(4-isopropylpyrimidin-2-yl)-2,7-diazaspiro[4.4]nonan-1-one]",,,1210,283
"Cc1cn2ccnc(N3CCC4(CCN(Cc5c[nH]c6ccccc56)C4=O)C3)c2n1 (stereo not shown) [Example 5.40, 2-((1H-indol-3-yl)methyl)-7-(2-methylimidazo[1,2-a]pyrazin-8-yl)-2,7-diazaspiro[4.4]nonan-1-one]",,,1730,188
"O=C1N(Cc2c[nH]c3ccccc23)CCC12CCN(c1nccc(C(F)(F)F)n1)C2 (stereo not shown) [Example 5.41, 2-((1H-indol-3-yl)methyl)-7-(4-(trifluoromethyl)pyrimidin-2-yl)-2,7-diazaspiro[4.4]nonan-1-one]",,,2410,343
"COc1cc(C)nc(N2CCC3(CCN(Cc4ccccc4-c4nc(C)no4)C3=O)C2)n1 (stereo not shown) [Example 5.42, 7-(4-methoxy-6-methylpyrimidin-2-yl)-2-(2-(3-methyl-1,2,4-oxadiazol-5-yl)benzyl)-2,7-diazaspiro[4.4]nonan-1-one]",,,1950,180
"COc1cc(C)nc(N2CCC3(CCN(Cc4nn(C)nc4Br)C3=O)C2)n1 (stereo not shown) [Example 5.46, 2-((5-bromo-2-methyl-2H-1,2,3-triazol-4-yl)methyl)-7-(4-methoxy-6-methylpyrimidin-2-yl)-2,7-diazaspiro[4.4]nonan-1-one]",< 10,21,,
O=C1N(Cc2c[nH]c3ccccc23)CCC12CCCN(c1cnc3ccccc3n1)C2 (stereo not shown) [Example 6.1],,,1130,639
"COc1ccnc(N2CCC3(CCCN(Cc4c[nH]c5ncccc45)C3=O)C2)n1 (stereo not shown) [Example 7.2, 7-((1H-Pyrrolo[2,3-b]pyridin-3-yl)methyl)-2-(4-methoxypyrimidin-2-yl)-2,7-diazaspiro[4.5]decan-6-one]",,,3200,703
"COc1ccnc(N2CCC3(CCCN(Cc4n[nH]c5ccccc45)C3=O)C2)n1 (stereo not shown) [Example 7.3, 7-((1H-Indazol-3-yl)methyl)-2-(4-methoxypyrimidin-2-yl)-2,7-diazaspiro[4.5]decan-6-one]",,,1430,234
"COc1ccnc(N2CCC3(CCCN(Cc4ccccc4-c4nc(C)no4)C3=O)C2)n1 (stereo not shown) [Example 7.5, 2-(4-Methoxypyrimidin-2-yl)-7-(2-(3-methyl-1,2,4-oxadiazol-5-yl)benzyl)-2,7-diazaspiro[4.5]decan-6-one]",,,981,221
"COc1cccc(-c2nn(C)nc2CN2CCCC3(CCN(c4nccc(OC)n4)C3)C2=O)c1 (stereo not shown) [Example 7.7, 7-((5-(3-Methoxyphenyl)-2-methyl-2H-1,2,3-triazol-4-yl)methyl)-2-(4-methoxypyrimidin-2-yl)-2,7-diazaspiro[4.5]decan-6-one]",,,537,366
